Species on record: Rattus norvegicus
Assay: Open TG-GATES - Regimen: Single
Format: toxicity, organism-based, Sprague-Dawley
Set-up: regimen Single, gender Male, age 6 weeks
Details: in vivo, po, 0 mg/kg, route gavage, dose level Control; for APTT / Bas / Eos / Fbg / Hb / Ht / Lym / MCH / MCHC / MCV / Mono / Neu / PT / Plat / RBC / Ret / WBC: tissue Blood; for KIDNEY_L / KIDNEY_R / KIDNEY_TOTAL: tissue Kidney; for LIVER: tissue Liver; for A/G / ALP / ALT / AST / BUN / CRE / Ca / Cl / DBIL / GLC / IP / K / LDH / Na / PL / RALB / TBIL / TC / TG / TP / gamma-GTP: tissue Plasma

SMILES: Cn1c(=O)c2[nH]cnc2n(C)c1=O.O [THEOPHYLLINE]
- TERMINAL_BW (3 h): 221.7 g
- APTT (3 h): 22.2 s
- Bas (3 h): 0%
- Eos (3 h): 0.8%
- Fbg (3 h): 289.8 mg/dL
- Hb (3 h): 13.1 g/dL
- Ht (3 h): 39.5%
- Lym (3 h): 83.2%
- MCH (3 h): 20.7 pg
- MCHC (3 h): 33.2%
- MCV (3 h): 62.5 fL
- Mono (3 h): 1.8%
- Neu (3 h): 13.6%
- PT (3 h): 15.5 s
- Plat (3 h): 119 x10_4/uL
- RBC (3 h): 632.2 x10_4/ul
- Ret (3 h): 8.4%
- WBC (3 h): 101.2 x10_2/uL
- KIDNEY_L (3 h): 1 g
- KIDNEY_R (3 h): 1 g
- KIDNEY_TOTAL (3 h): 2 g
- LIVER (3 h): 10.3 g
- A/G (3 h): 1.3
- ALP (3 h): 1309 IU/L
- ALT (3 h): 43.6 IU/L
- AST (3 h): 70 IU/L
- BUN (3 h): 13.8 mg/dL
- CRE (3 h): 0.2 mg/dL
- Ca (3 h): 10.5 mg/dL
- Cl (3 h): 105 meq/L
- DBIL (3 h): 0 mg/dL
- GLC (3 h): 190.4 mg/dL
- IP (3 h): 8.8 mg/dL
- K (3 h): 4.2 meq/L
- LDH (3 h): 179 IU/L
- Na (3 h): 142.6 meq/L
- PL (3 h): 135.8 mg/dL
- RALB (3 h): 3 g/dL
- TBIL (3 h): 0.018 mg/dL
- TC (3 h): 77.4 mg/dL
- TG (3 h): 49.2 mg/dL
- TP (3 h): 5.3 g/dL
- gamma-GTP (3 h): 1.2 IU/L
- TERMINAL_BW (6 h): 213.2 g
- APTT (6 h): 21.5 s
- Bas (6 h): 0%
- Eos (6 h): 0.6%
- Fbg (6 h): 300.6 mg/dL
- Hb (6 h): 13.7 g/dL
- Ht (6 h): 40.9%
- Lym (6 h): 82.2%
- MCH (6 h): 20.8 pg
- MCHC (6 h): 33.4%
- MCV (6 h): 62.3 fL
- Mono (6 h): 2.6%
- Neu (6 h): 13.2%
- PT (6 h): 15.6 s
- Plat (6 h): 118.7 x10_4/uL
- RBC (6 h): 657.2 x10_4/ul
- Ret (6 h): 7.4%
- WBC (6 h): 102.6 x10_2/uL
- KIDNEY_L (6 h): 1 g
- KIDNEY_R (6 h): 1 g
- KIDNEY_TOTAL (6 h): 1.9 g
- LIVER (6 h): 9.1 g
- A/G (6 h): 1.2
- ALP (6 h): 1402.8 IU/L
- ALT (6 h): 39.8 IU/L
- AST (6 h): 75.6 IU/L
- BUN (6 h): 10.8 mg/dL
- CRE (6 h): 0.1 mg/dL
- Ca (6 h): 10.4 mg/dL
- Cl (6 h): 105.8 meq/L
- DBIL (6 h): 0 mg/dL
- GLC (6 h): 183.8 mg/dL
- IP (6 h): 9.3 mg/dL
- K (6 h): 4.4 meq/L
- LDH (6 h): 202 IU/L
- Na (6 h): 142.6 meq/L
- PL (6 h): 124.6 mg/dL
- RALB (6 h): 2.9 g/dL
- TBIL (6 h): 0.024 mg/dL
- TC (6 h): 72.8 mg/dL
- TG (6 h): 48.2 mg/dL
- TP (6 h): 5.4 g/dL
- gamma-GTP (6 h): 1 IU/L
- TERMINAL_BW (9 h): 212.6 g
- APTT (9 h): 22.9 s
- Bas (9 h): 0%
- Eos (9 h): 0.8%
- Fbg (9 h): 310.2 mg/dL
- Hb (9 h): 13.3 g/dL
- Ht (9 h): 39.9%
- Lym (9 h): 77.6%
- MCH (9 h): 20.5 pg
- MCHC (9 h): 33.3%
- MCV (9 h): 61.6 fL
- Mono (9 h): 2.4%
- Neu (9 h): 18%
- PT (9 h): 15.8 s
- Plat (9 h): 119 x10_4/uL
- RBC (9 h): 649.6 x10_4/ul
- Ret (9 h): 7.5%
- WBC (9 h): 79.6 x10_2/uL
- KIDNEY_L (9 h): 1 g
- KIDNEY_R (9 h): 1 g
- KIDNEY_TOTAL (9 h): 2 g
- LIVER (9 h): 8.6 g
- A/G (9 h): 1.2
- ALP (9 h): 1444.4 IU/L
- ALT (9 h): 35.2 IU/L
- AST (9 h): 70.4 IU/L
- BUN (9 h): 12.6 mg/dL
- CRE (9 h): 0.2 mg/dL
- Ca (9 h): 10.8 mg/dL
- Cl (9 h): 105.8 meq/L
- DBIL (9 h): 0 mg/dL
- GLC (9 h): 188 mg/dL
- IP (9 h): 9.2 mg/dL
- K (9 h): 4.3 meq/L
- LDH (9 h): 180.6 IU/L
- Na (9 h): 140.8 meq/L
- PL (9 h): 125.6 mg/dL
- RALB (9 h): 3.1 g/dL
- TBIL (9 h): 0.022 mg/dL
- TC (9 h): 73.2 mg/dL
- TG (9 h): 52.8 mg/dL
- TP (9 h): 5.5 g/dL
- gamma-GTP (9 h): 1 IU/L
- TERMINAL_BW (24 h): 228.3 g
- APTT (24 h): 21.9 s
- Bas (24 h): 0%
- Eos (24 h): 1%
- Fbg (24 h): 291.2 mg/dL
- Hb (24 h): 13.6 g/dL
- Ht (24 h): 40.4%
- Lym (24 h): 82.2%
- MCH (24 h): 20.8 pg
- MCHC (24 h): 33.7%
- MCV (24 h): 61.5 fL
- Mono (24 h): 2.6%
- Neu (24 h): 13%
- PT (24 h): 15.9 s
- Plat (24 h): 115.8 x10_4/uL
- RBC (24 h): 657 x10_4/ul
- Ret (24 h): 6.9%
- WBC (24 h): 97 x10_2/uL
- KIDNEY_L (24 h): 1 g
- KIDNEY_R (24 h): 1 g
- KIDNEY_TOTAL (24 h): 2 g
- LIVER (24 h): 10.4 g
- A/G (24 h): 1.2
- ALP (24 h): 1398.8 IU/L
- ALT (24 h): 40.8 IU/L
- AST (24 h): 69.4 IU/L
- BUN (24 h): 16.6 mg/dL
- CRE (24 h): 0.2 mg/dL
- Ca (24 h): 10.9 mg/dL
- Cl (24 h): 106.2 meq/L
- DBIL (24 h): 0 mg/dL
- GLC (24 h): 193.4 mg/dL
- IP (24 h): 7.7 mg/dL
- K (24 h): 4.3 meq/L
- LDH (24 h): 221 IU/L
- Na (24 h): 143.4 meq/L
- PL (24 h): 151.6 mg/dL
- RALB (24 h): 3 g/dL
- TBIL (24 h): 0.008 mg/dL
- TC (24 h): 80.4 mg/dL
- TG (24 h): 100.2 mg/dL
- TP (24 h): 5.5 g/dL
- gamma-GTP (24 h): 1.2 IU/L

Reference: ChEMBL document CHEMBL3885861, “Open TG-GATES”
